Measured values reported in patent US20040121947A1, “Compounds which inhibit beta-secretase activity and methods of use thereof” (Oklahoma Medical Research Foundation, priority 2000, published 2004).
Read-outs that look alike come from different tables or passages of the source.

Biological target: T1, memapsin 2 (Homo sapiens, UniProt P56817)
T1 construct: pET-11 vector-derived residues 1-15 of promemapsin 2-T1 (N, cleaved yes); made in house; host or cells: E. coli
Assay: Inhibition of memapsin 2 proteolytic activity, fluorogenic substrate FS-2
Assay type: biochemical
Conditions: for Ki / Ki app: memapsin 2
Procedure: Ki is the inhibition equilibrium constant which indicates the ability of compounds to inhibit the β-secretase activity of memapsin 2 and memapsin 1. […] The K1 value is independent of the substrate, and converted from Ki apparent.
The Vi/Vo values depicted in Table 1 were determined at conditions under which the enzyme and inhibitor concentrations were equal (e.g., about 80 nM, 100 nM).
The relationship of Ki (independent of substrate concentration) to Kiapp is a function of substrate concentration in the assay and the Km for cleavage of the substrate by either memapsin 1 or memapsin 2 by the relationship:
The spontaneously activated memapsin 2 was employed in assays to assess the inhibition of memapsin 2 relative to memapsin 1 by compounds of the invention and in some crystallization studies.
An aliquot of the inhibitor of known concentration in DMSO was diluted into 1.8 ml 0.1 M NaOAc, pH 4.0. DMSO and added to a final concentration of 10% (v/v), and memapsin 2 (final concentration of 80 nM), followed by a 20 minute equilibration at 37° C. Compounds were evaluated for the ability to inhibit memapsin 1 and memapsin 2 at concentrations between about 10 nM and about 10 μm of inhibitor.

[1] = independent of substrate, converted from Ki apparent, read-out: Ki
[2] = apparent Ki in presence of substrate FS-2, read-out: Ki app
[3] = apparent Ki in presence of substrate FS-2
[4] = independent of substrate, converted from Ki apparent

T1 sequence (P56817 41-454 limits assumed): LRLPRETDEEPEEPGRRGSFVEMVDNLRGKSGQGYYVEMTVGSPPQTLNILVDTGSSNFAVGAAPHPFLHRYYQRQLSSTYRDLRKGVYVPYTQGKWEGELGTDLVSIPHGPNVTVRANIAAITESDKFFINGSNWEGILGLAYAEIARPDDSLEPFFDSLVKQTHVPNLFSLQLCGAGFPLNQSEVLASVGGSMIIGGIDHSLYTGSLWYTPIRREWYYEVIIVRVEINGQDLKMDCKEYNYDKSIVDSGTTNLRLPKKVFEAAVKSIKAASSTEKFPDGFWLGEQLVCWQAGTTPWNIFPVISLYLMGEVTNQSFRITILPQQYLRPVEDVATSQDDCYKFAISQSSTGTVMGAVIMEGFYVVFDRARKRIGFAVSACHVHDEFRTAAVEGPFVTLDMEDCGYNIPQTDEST

Structure (SMILES) | Ki [1] | Ki [2] | Ki app [3] | Ki [4] | Vi/Vo (ratio of initial cleavage velocities of FS-2 with/without compound, enzyme and inhibitor concentrations equal (e.g., about 80 nM, 100 nM))
CC(C)C[C@H](NC(=O)OC(C)(C)C)[C@@H](O)C[C@@H](C)C(=O)N[C@@H](C)C(=O)NCc1ccccc1 [MMI-001] | 2370 µM |  |  |  | 
CSCC[C@H](NC(=O)[C@H](C)NC(=O)[C@H](C)C[C@H](O)[C@H](CC(C)C)NC(=O)OC(C)(C)C)C(=O)NCc1ccccc1 [MMI-002] | 274 µM |  |  |  | 
CC(C)C[C@H](NC(=O)OC(C)(C)C)[C@@H](O)C[C@@H](C)C(=O)N[C@@H](C)C(=O)N[C@@H](CCS(C)(=O)=O)C(=O)NCc1ccccc1 [MMI-003] | 1660 µM |  |  |  | 
CC(C)C[C@H](NC(=O)[C@H](CC(N)=O)NC(=O)[C@@H](NC(=O)OC(C)(C)C)C(C)C)[C@@H](O)C[C@@H](C)C(=O)N[C@@H](C)C(=O)NCc1ccccc1 [MMI-005] | 0.0789 µM | 0.126 µM |  |  | 
CSCC[C@H](NC(=O)OC(C)(C)C)C(=O)N[C@@H](CC(C)C)[C@@H](O)C[C@@H](C)C(=O)N[C@@H](C)C(=O)NCc1ccccc1 [MMI-006] | 40.2 µM | 63.3 µM |  |  | 
CC(C)C[C@H](NC(=O)[C@H](CCS(C)(=O)=O)NC(=O)OC(C)(C)C)[C@@H](O)C[C@@H](C)C(=O)N[C@@H](C)C(=O)NCc1ccccc1 [MMI-007] | 31.7 µM | 49.9 µM |  |  | 
CSCC[C@H](NC(=O)[C@@H](NC(=O)OC(C)(C)C)C(C)C)C(=O)N[C@@H](CC(C)C)[C@@H](O)C[C@@H](C)C(=O)N[C@@H](C)C(=O)NCc1ccccc1 [MMI-008] | 0.046 µM | 0.0736 µM |  |  | 
CC(C)C[C@H](NC(=O)[C@H](CCS(C)(=O)=O)NC(=O)[C@@H](NC(=O)OC(C)(C)C)C(C)C)[C@@H](O)C[C@@H](C)C(=O)N[C@@H](C)C(=O)NCc1ccccc1 [MMI-009] | 0.0562 µM | 0.0899 µM |  |  | 
CC(C)C[C@H](NC(=O)[C@H](CC(N)=O)NC(=O)[C@@H](NC(=O)OC(C)(C)C)C(C)C)[C@@H](O)C[C@@H](C)C(=O)N[C@H](C(=O)NCc1ccccc1)C(C)C [MMI-012] | 0.00568 µM | 0.0091 µM |  |  | 
CC(C)C[C@H](NC(=O)[C@@H](NC(=O)[C@@H](NC(=O)OC(C)(C)C)C(C)C)[C@@H]1CCOC1)[C@@H](O)C[C@@H](C)C(=O)N[C@H](C(=O)NCc1ccccc1)C(C)C [MMI-020] | 1 µM | 1.61 µM |  |  | 
C=CC[C@H](C[C@H](O)[C@H](CC(C)C)NC(=O)[C@H](CC(N)=O)NC(=O)[C@@H](NC(=O)OC(C)(C)C)C(C)C)C(=O)N[C@H](C(=O)NCc1ccccc1)C(C)C [MMI-021] | 0.0701 µM | 0.112 µM |  |  | 
CC(C)C[C@H](NC(=O)[C@H](CS(C)(=O)=O)NC(=O)OC(C)(C)C)[C@@H](O)C[C@@H](C)C(=O)N[C@H](C(=O)NCc1ccccc1)C(C)C [MMI-024] | 0.902 µM | 1.44 µM |  |  | 
CSCC[C@H](NC(=O)[C@@H](NC(=O)OC(C)(C)C)C(C)C)C(=O)N[C@@H](CC(C)C)[C@@H](O)C[C@@H](CC(F)(F)F)C(=O)N[C@H](C(=O)NCc1ccccc1)C(C)C [MMI-030] | 5.32 µM | 8.52 µM |  |  | 
CSCC[C@H](NC(=O)[C@@H](NC(=O)OC(C)(C)C)C(C)C)C(=O)N[C@@H](CC(C)C)[C@@H](O)C[C@@H](C)C(=O)N[C@H](C(=O)NCc1ccccc1)C1CCCO1 (stereo partly drawn) [MMI-034] | 0.139 µM | 0.223 µM |  |  | 
CC(C)C[C@H](NC(=O)[C@H](CCS(C)(=O)=O)NC(=O)[C@@H](NC(=O)OC(C)(C)C)C(C)C)[C@@H](O)C[C@@H](C)C(=O)N[C@H](C(=O)NCc1ccccc1)C1CCCO1 (stereo partly drawn) [MMI-035] | 0.266 µM | 0.426 µM |  |  | 
CSCC[C@H](NC(=O)[C@@H](NC(=O)OC(C)(C)C)C(C)C)C(=O)N[C@@H](CC(C)C)[C@@H](O)C[C@@H](CC(C)C)C(=O)NC1CCN(Cc2ccccc2)CC1 [MMI-036] |  |  | N.I. | N.I. | 
CSCC[C@H](NC(=O)OCc1cccnc1)C(=O)N[C@@H](Cc1ccccc1)[C@@H](O)C[C@@H](C)C(=O)N[C@H](C(=O)NCc1ccccc1)C(C)C [MMI-040] | 1.29 µM | 2.07 µM |  |  | 
CSCC[C@H](NC(=O)[C@@H](NC(=O)OC(C)(C)C)C(C)C)C(=O)N[C@@H](CC(C)C)[C@@H](O)C[C@@H](C)C(=O)N[C@H](COCc1ccccc1)C(C)C [MMI-041] |  |  | N.I. | N.I. | 
CSCC[C@H](NC(=O)[C@@H](NC(=O)OC(C)(C)C)C(C)C)C(=O)N[C@@H](CC(C)C)[C@@H](O)C[C@@H](C)C(=O)N[C@H](CO)C(C)C [MMI-042] | 22.8 µM | 36.5 µM |  |  | 
CC(C)C[C@H](NC(=O)[C@H](CCS(C)(=O)=O)NC(=O)[C@@H](NC(=O)OC(C)(C)C)C(C)C)[C@@H](O)C[C@@H](C)C(=O)N[C@H](CO)C(C)C [MMI-043] | 30.7 µM | 49.2 µM |  |  | 
CSCC[C@H](NC(=O)[C@@H](NC(=O)OC(C)(C)C)C(C)C)C(=O)N[C@@H](CC(C)C)[C@@H](O)C[C@@H](C)C(=O)N1CCC[C@H]1C(=O)NCc1ccccc1 [MMI-044] |  |  | N.I. | N.I. | 
CC(C)C[C@H](NC(=O)[C@H](CCS(C)(=O)=O)NC(=O)[C@@H](NC(=O)OC(C)(C)C)C(C)C)[C@@H](O)C[C@@H](C)C(=O)N1CCC[C@H]1C(=O)NCc1ccccc1 [MMI-045] |  |  | N.I. | N.I. | 
CSCC[C@H](NC(=O)[C@@H](NC(=O)OC(C)(C)C)C(C)C)C(=O)N[C@@H](CC(C)C)[C@@H](O)C[C@@H](C)C(=O)N[C@H]1c2ccccc2C[C@H]1O [MMI-046] | 93.7 µM |  |  |  | 
CC(C)C[C@H](NC(=O)[C@H](CCS(C)(=O)=O)NC(=O)[C@@H](NC(=O)OC(C)(C)C)C(C)C)[C@@H](O)C[C@@H](C)C(=O)N[C@H]1c2ccccc2C[C@H]1O [MMI-047] | 69.1 µM |  |  |  | 
CSCC[C@H](NS(=O)(=O)c1ccc(CO)cc1)C(=O)N[C@@H](Cc1ccccc1)[C@@H](O)C[C@@H](C)C(=O)N[C@H](C(=O)NCc1ccccc1)C(C)C [MMI-048] | 34.2 µM | 54.8 µM |  |  | 
CC(C)C[C@H](NC(=O)[C@H](CCO)NC(=O)c1cnc2ccccc2c1)[C@@H](O)C[C@@H](C)C(=O)N[C@H](C(=O)N[C@H]1c2ccccc2C[C@H]1O)C(C)C [MMI-049] | 124 µM |  |  |  | 

Now from value to compound:

Ki [1] | Ki [2] | Ki app [3] | Ki [4] | Vi/Vo (ratio of initial cleavage velocities of FS-2 with/without compound, enzyme and inhibitor concentrations equal (e.g., about 80 nM, 100 nM)) | Structure (SMILES)
18.7 µM | 29.4 µM |  |  |  | C=CC[C@H](C[C@H](O)[C@H](CC(C)C)NC(=O)[C@H](CC(N)=O)NC(=O)OC(C)(C)C)C(=O)N[C@H](C(=O)NCc1ccccc1)C(C)C [MMI-010]
3.1 µM | 4.88 µM |  |  |  | CC(C)C[C@H](NC(=O)[C@H](CC(N)=O)NC(=O)OC(C)(C)C)[C@@H](O)C[C@@H](C)C(=O)N[C@H](C(=O)NCc1ccccc1)C(C)C [MMI-011]
5.65 µM | 9.04 µM |  |  |  | CSCC[C@H](NC(=O)OC(C)(C)C)C(=O)N[C@@H](CC(C)C)[C@@H](O)C[C@@H](C)C(=O)N[C@H](C(=O)NCc1ccccc1)C(C)C [MMI-015]
3.53 µM | 5.64 µM |  |  |  | CC(C)C[C@H](NC(=O)[C@H](CCS(C)(=O)=O)NC(=O)OC(C)(C)C)[C@@H](O)C[C@@H](C)C(=O)N[C@H](C(=O)NCc1ccccc1)C(C)C [MMI-016]
9.55 µM | 15.3 µM |  |  |  | CSC[C@H](NC(=O)OC(C)(C)C)C(=O)N[C@@H](CC(C)C)[C@@H](O)C[C@@H](C)C(=O)N[C@H](C(=O)NCc1ccccc1)C(C)C [MMI-023]
0.0409 µM | 0.0655 µM |  |  |  | CSC[C@H](NC(=O)[C@@H](NC(=O)OC(C)(C)C)C(C)C)C(=O)N[C@@H](CC(C)C)[C@@H](O)C[C@@H](C)C(=O)N[C@H](C(=O)NCc1ccccc1)C(C)C [MMI-025]
7.22 µM | 11.5 µM |  |  |  | CCC[C@H](C[C@H](O)[C@H](CC(C)C)NC(=O)[C@H](CSC)NC(=O)O[C@@H]1C[C@@H]2CCO[C@@H]2C1)C(=O)N[C@H](C(=O)NCc1ccccc1)C(C)C [MMI-027]
6.17 µM | 9.87 µM |  |  |  | CCC[C@H](C[C@H](O)[C@H](CC(C)C)NC(=O)[C@H](CSC)NC(=O)O[C@H]1CO[C@H]2OCC[C@H]21)C(=O)N[C@H](C(=O)NCc1ccccc1)C(C)C [MMI-028]
1.06 µM | 1.7 µM |  |  |  | CCC[C@H](C[C@H](O)[C@H](CC(C)C)NC(=O)[C@H](CSC)NC(=O)O[C@H]1CCOC1)C(=O)N[C@H](C(=O)NCc1ccccc1)C(C)C [MMI-029]
0.539 µM | 0.864 µM |  |  |  | CCC[C@H](C[C@H](O)[C@H](CC(C)C)NC(=O)[C@H](CSC)NC(=O)OCc1cccnc1)C(=O)N[C@H](C(=O)NCc1ccccc1)C(C)C [MMI-031]
0.838 µM | 1.34 µM |  |  |  | CCC[C@H](C[C@H](O)[C@H](CC(C)C)NC(=O)[C@H](CSC)NC(=O)c1cccc(O)c1C)C(=O)N[C@H](C(=O)NCc1ccccc1)C(C)C [MMI-032]
0.0648 µM | 0.104 µM |  |  |  | CSCC[C@H](NC(=O)[C@@H](NC(=O)OC(C)(C)C)C(C)C)C(=O)N[C@@H](CC(C)C)[C@@H](O)C[C@@H](CCO)C(=O)N[C@H](C(=O)NCc1ccccc1)C(C)C [MMI-037]
0.0662 µM | 0.106 µM |  |  | 0.4 | CSCC[C@H](NC(=O)[C@@H](NC(=O)OC(C)(C)C)C(C)C)C(=O)N[C@@H](CC(C)C)[C@@H](O)C[C@@H](CC(N)=O)C(=O)N[C@H](C(=O)NCc1ccccc1)C(C)C [MMI-038]
0.873 µM | 1.4 µM |  |  |  | CSCC[C@H](NC(=O)OCc1cccnc1)C(=O)N[C@@H](CC(C)C)[C@@H](O)C[C@@H](C)C(=O)N[C@H](C(=O)NCc1ccccc1)C(C)C [MMI-039]
